In patent US20250018019A1, “TREATMENT OF INTERFERON DRIVEN INFLAMMATION” (The Provost, Fellows, Foundation Scholars and the other …, priority 2023, published 2025):
Where a name gives a salt, the structure may show the parent alone.

Tests used:
BMDMs [1] = assay: Western blotting of signalling proteins in BMDMs; assay type: cell-based, mouse; settings: for IFN-β-induced STAT1 and JAK1 phosphorylation / upstream kinases (AKT, JNK, ERK and p38), total and phospho levels: BMDMs pre-treated with DMSO, FHIN1 or DMF
Protocol: (§1) All compounds used DMSO as a vehicle except for 4-hydroxy tamoxifen (EtOH), NAC (PBS), and AOAA for tracing experiments (Media). LPS was used at a concentration of 100 ng/ml for indicated timepoints (2, 3, 4, 6, 8, 24, 48 h). FHIN1 (10 or 20 μM), MMF (50 or 100 μM), DMF (25 μM), AOAA (5 mM), oligomycin (10 μM), CCCP (50 μM) NAC (1 mM), and IMT1 (10 μM) pre-treatments were performed for 3 h prior the addition of LPS. Cells were treated with valinomycin (10 nM) 15 mins before LPS stimulation. Anti-CD210 or IgG control (10 μg/ml) antibodies were added to cells 1 h prior to LPS stimulation. Recombinant mouse IL-10 protein (100 ng/ml) was added to cells at the same time as LPS. Cells were treated with IFN-B1 (220 ng/ml) for 3 h. Cells were treated with C-178 (1 μM) 1 h prior to LPS stimulation or transfection with 2′3′-cGAMP (1.5 μg/ml) for 4 hrs to achieve cGAS-STING activation. Cells were treated with ODN 2088 (1 μM) for 1 hr prior to LPS stimulation or transfection with CPG ODN 1826 (1.5 μg/ml) to achieve TLR9 activation. 3 different timepoints of 4-hydroxy tamoxifen (TAM) (600 nM or 2 μM) or EtOH treatment were performed-these are specified in the individual figure legends. For ‘48 h’ treatments EtOH/TAM was added on day 5 of 6 during the BMDM differentiation protocol. On day 6 they were plated with EtOH/TAM (left overnight) and treated the following day. For ‘72 h’ treatments EtOH/TAM was added on day […] of 6 during the BMDM differentiation protocol. On day 6 they were plated with EtOH/TAM (left overnight) and treated the following day. For ‘96 h’ treatments EtOH/TAM was added on day […] of 6 during the BMDM differentiation protocol. On day 6 they were plated with EtOH/TAM and treated 2 days later.
Supernatant was removed from cells following stimulation and lysates were harvested in 30-50 μl lysis buffer (0.125 M Tris pH 6.8, 10% glycerol, 0.02% SDS, 5% DTT) Lysates were subsequently heated to 95° C. for 5 mins to denature proteins. SDS-PAGE was used to resolve proteins by molecular weight. Samples were boiled at 95° C. for 5 mins prior to loading into a 5% stacking gel. The percentage resolving gel depended on the molecular weight of the given protein. The Bio-Rad gel running system was used to resolve proteins and the Bio-Rad wet transfer system was used for the electrophoretic transfer of proteins onto PVDF membrane. Following transfer, the membrane was incubated in milk powder (5% in TBST) for 1 hr and subsequently incubated in primary antibody rolling overnight at 4° C. Primary antibodies targeting phospho-proteins were diluted in BSA (5% in TBST) as opposed to milk. The membrane was incubated for 1 hr with secondary antibody (diluted in 5% milk powder) at room temperature. Prior to visualisation, the membrane was immersed in WesternBright ECL Spray (Advansta). Protein visualisation took place on a ChemiDoc MPTM Imaging System (Bio-Rad), and both chemiluminescent and white light images were taken. Images were analysed using Image Lab 6.0.1 (Bio-Rad).

c-Fos = molecular target: T1, c-Fos (Mus musculus, UniProt P01101); assay: c-Fos activity assay (AP1 transcription factor assay on nuclear extracts); assay type: cell-based; settings: BMDMs pre-treated 3 h, LPS 4 h
T1 construct: nuclear extracts were isolated using a Nuclear Extraction Kit; endogenous in cells; host or cells: mouse bone-marrow-derived macrophages (BMDMs), nuclear extract
T1 sequence (P01101 whole entry): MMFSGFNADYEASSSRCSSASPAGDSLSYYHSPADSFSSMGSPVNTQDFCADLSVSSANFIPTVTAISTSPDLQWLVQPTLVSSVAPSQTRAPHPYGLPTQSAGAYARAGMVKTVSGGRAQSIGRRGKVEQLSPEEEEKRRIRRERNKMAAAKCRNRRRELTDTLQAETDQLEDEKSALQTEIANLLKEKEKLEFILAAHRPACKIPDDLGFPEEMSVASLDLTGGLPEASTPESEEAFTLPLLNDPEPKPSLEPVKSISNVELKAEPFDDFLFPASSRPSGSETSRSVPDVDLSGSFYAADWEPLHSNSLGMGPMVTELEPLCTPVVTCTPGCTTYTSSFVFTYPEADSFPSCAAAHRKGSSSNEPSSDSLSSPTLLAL
T1 sequence (P05627 whole entry partner): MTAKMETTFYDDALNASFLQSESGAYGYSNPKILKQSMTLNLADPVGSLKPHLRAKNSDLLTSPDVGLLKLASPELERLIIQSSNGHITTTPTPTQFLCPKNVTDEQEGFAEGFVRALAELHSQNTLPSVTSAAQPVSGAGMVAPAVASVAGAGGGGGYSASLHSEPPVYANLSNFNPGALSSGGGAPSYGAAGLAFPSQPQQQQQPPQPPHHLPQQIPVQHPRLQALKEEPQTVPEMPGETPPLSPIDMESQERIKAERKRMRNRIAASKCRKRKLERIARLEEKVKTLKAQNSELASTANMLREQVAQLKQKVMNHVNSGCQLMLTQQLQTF
Protocol: BMDMs from 3 mice were plated in 10 cm dishes at 0.5×10^6 cells/mL and left overnight. Cells were pre-treated with FHIN1 or DMF (3 h) prior to LPS stimulation (4 h). Upon harvesting, nuclear extracts were isolated using a Nuclear Extraction Kit (ab113474) purchased from Abcam. Nuclear extracts were quantified via BCA assay and standardised. c-Fos relative activity was then quantified using the AP1 transcription factor assay purchased from Abcam (Ab207196) according to the manufacturers protocol.

BMDMs [2] = assay: RT-qPCR gene expression in BMDMs; assay type: cell-based, mouse; settings: for IL-1β expression / Il10 expression / Tnfa expression: BMDMs pre-treated 3 h; for Ifnb1 expression following Nrf2 silencing: Nrf2 siRNA
Protocol: as §1
RNA extraction from cells was carried out using a Purelink™ RNA kit (Invitrogen) according to the manufacturer's instructions. BMDMs were treated as required, and following treatment were instantly lysed in 350 μl RNA lysis buffer. Isolated RNA was quantified using a NanoDrop 2000 spectrophotometer, and RNA concentration was normalised to the lowest concentration across all samples with RNAse-free water. If necessary, samples were DNAse-treated after quantification using DNAse I (Thermo Fisher) according to the manufacturer's instructions. Isolated RNA samples were normalised and converted into cDNA using the High-Capacity cDNA Reverse Transcription Kit (Thermo Fisher) according to manufacturer's instructions. 10 μl of RNA (at a maximum concentration of 100 ng/μl) was added to 10 μl of reverse transcription master mix to complete the reaction mixture. Real-time quantitative PCR was performed on the cDNA generated in the previous step, using primers designed in-house and ordered from Eurofins Genomics, as detailed in Table S2. The reaction was performed in a 96-well qPCR plate by a 7500 Fast Real-Time PCR machine (Thermo Fisher). Relative expression (2^−ΔΔCT) was calculated from the CT values for each sample and gene of interest.
Pre-designed silencer select siRNAs for Cgas (s103166), Tmem173 (s91058), Tlr3 (s100579), Tlr9 (s96268), As/(s99640), Tlr7 (s100720), Ddx58 (s106376), Ifih1 (s89787), Nrf2 (s70522), Atf4 (s62689) and negative control (4390843) were ordered from Thermo Fisher. siRNA sequences are given in Table S2. Cells were transfected with 50 nM siRNA using 5 μl lipofectamine RNAiMAX according to manufacturer's instructions (Thermo Fisher). Cells were transfected in medium without serum and antibiotics which was replaced with complete medium 8 hours later. Cells were subsequently left for at least a further 12 hours prior to treatment.

SMILES | LPS-induced p65 phosphorylation (BMDMs [1]; BMDMs pre-treated) | IFN-β-induced STAT1 and JAK1 phosphorylation (BMDMs [1]) | upstream kinases (AKT, JNK, ERK and p38), total and phospho levels (BMDMs [1]) | c-Fos activation (c-Fos) | IL-1β expression (BMDMs [2]; LPS 4 h) | Il10 expression (BMDMs [2]; LPS 4 h) | Tnfa expression (BMDMs [2]; LPS 4 h) | Tmem173 expression (BMDMs [2]; BMDMs pre-treated, LPS 4 h) | Ifnb1 expression following Nrf2 silencing (BMDMs [2]; BMDMs, LPS 4 h) | LPS-induced IL-1β expression (IL-1β levels) (BMDMs [1]; BMDMs pre-treated) | LPS-induced TRAF3 levels (BMDMs [1]; BMDMs pre-treated, LPS 4 h) | TBK1 phosphorylation (BMDMs [1]; BMDMs pre-treated, LPS 4 h) | STAT3 phosphorylation (BMDMs [1]; BMDMs pre-treated, co-treated with recombinant IL-10 100 ng/ml, LPS 4 h) | Ddx58 expression (BMDMs [2]; BMDMs pre-treated, LPS 4 h) | dependence of the FHIN1 IFN-β increase on NAC-sensitive redox stress (Ifnb1 expression) (BMDMs [2]; BMDMs, in the presence of NAC, LPS 4 h) | dependence of FHIN1-driven GDF15 on NRF2 and ATF4 (BMDMs [2]; BMDMs, silencing of Nrf2 or Atf4, LPS 4 h) | induction of IFN-β (Ifnb1) in MAVS knockout BMDMs (BMDMs [2]; WT and Mavs−/− BMDMs, LPS 4 h)
COC(=O)/C=C/C(=O)OC [DMF, dimethyl fumarate] | modestly augment | limited | did not observe changes | strongly impaired | reduced | decreased | increased | Suppression | increased |  |  |  |  |  |  |  | 
CCOC(=O)[C@@]12CCCC=C1N(Cc1ccc(-c3ccccc3)cc1)C(=O)[C@H]2CC(=O)NC [FHIN1, Fumarate hydratase-IN-1] | modestly augment | limited | did not observe changes | strongly impaired | reduced | decreased | increased | Suppression | increased | not increased | not increased | increased | failed to impair | reduced | independent of NAC-sensitive redox stress | partly NRF2-but not ATF4-dependent | did not impair
